Experimental data published in patent US12636366B2, “Ruthenium (II) complexes and conjugates thereof for use as photosensitizer agent in photodynamic therapy” (Paris Sciences et Lettres, priority 2019, dated 2026).
Like-named read-outs stand apart in the source and are kept apart here.

What was measured:
[1] = system: non-cancerous retina pigmented epithelial cell line (RPE-1); test: Dark and light cytotoxicity, resazurin cell viability assay, RPE-1; assay type: cell-based; details: for PI (IC50 in the dark/IC50 upon light irradiation): RPE-1, 480 nm
Description: (§1) HeLa and CT-26 cell lines were cultured in DMEM media (Gibco, Life Technologies, USA) supplemented with 10% of fetal calf serum (Gibco). U87 and U373 cell lines were cultured in MEM media with addition of 1% of MEM NEAA (non-essential aminoacids) (Gibco) and 10% of fetal calf serum. RPE-1 cells were cultured in DMEM/F-12 (Gibco) supplemented with 10% of fetal calf serum. RPE-1 stable cells lines were cultured as RPE-1 cells with addition of geneticin (0.5 mg/ml) (Gibco). All cell lines were complemented with 100 U/ml penicillin-streptomycin mixture (Gibco), and maintained in humidified atmosphere at 37° C. and 5% of CO2.
(§2) Dark and light cytotoxicity of the Ru(II) complexes was assessed by fluorometric cell viability assay using resazurin (ACROS Organics). For dark and light cytotoxicity, cells were seeded in triplicates in 96 well plates at a density of 4000 cells per well in 100 μl, 24 h prior to treatment. The medium was then replaced with increasing concentration of the tested complexes and cells were incubated for 4 h. Medium was then replaced for fresh complete medium. Cells used for light cytotoxicity experiment were exposed to: 480 nm light for 10 min, 510 nm for 40 min, 540 for 60 min or 595 nm for 120 min in a 96-well plate using a LUMOS-BIO photoreactor (Atlas Photonics). Each well was individually illuminated with a LED at constant current. After irradiation cells were kept for another 44 h in the incubator and the medium was replaced by fresh complete medium containing resazurin (0.2 mg ml^−1 final concentration). After 4 h incubation at 37° C., the fluorescence signal of the resorufin product was read by SpectraMax M5 microplate reader (ex: 540 nm em: 590 nm). IC50 values were calculated using GraphPad Prism software.
(§3) The potential of the complexes to act as PDT PSs was determined on mouse colon carcinoma cells (CT-26), human glioblastoma cells (U87 and U373), human cervical carcinoma cells (HeLa) as well as non-cancerous retina pigmented epithelial cell line (RPE-1) according to the method described above. […] Ideally, a PDT PS should be non-toxic in the dark and highly toxic upon light activation. […] The toxicity of the compounds upon light irradiation (480 nm, 10 min, 3.21 J cm^−2) was then investigated.

[2] = system: human cervical carcinoma cells (HeLa); test: Dark and light cytotoxicity, resazurin cell viability assay, HeLa; assay type: cell-based; details: for PI (IC50 in the dark/IC50 upon light irradiation): 480 nm
Description: as §1, §2, §3

[3] = system: CT-26 mouse colon carcinoma cells; test: Dark and light cytotoxicity, resazurin cell viability assay, CT-26; assay type: cell-based; details: for PI (IC50 in the dark/IC50 upon light irradiation): CT-26, 480 nm
Description: as §1, §2, §3

[4] = system: human glioblastoma cells (U87); test: Dark and light cytotoxicity, resazurin cell viability assay, U87; assay type: cell-based; details: for PI (IC50 in the dark/IC50 upon light irradiation): U87, 480 nm
Description: as §1, §2, §3

[5] = Singlet oxygen measurement, direct evaluation (1O2 luminescence at 1270 nm); assay type: physicochemical; details: direct method, excitation at 450 nm; for Singlet oxygen quantum yield Φ(1O2), CH3CN Direct / Singlet oxygen quantum yield Φ(1O2), D2O Direct: average of three, +-10%
Description: The samples were prepared in an air saturated CH3CN or D2O solution with an absorbance of 0.2 at 450 nm. This solution was irradiated in fluorescence quartz cuvettes (width 1 cm) using a mounted M450LP1 LED (Thorlabs) whose irradiation, centered at 450 nm, has been focused with aspheric condenser lenses. The intensity of the irradiation has been varied using a T-Cube LED Driver (Thorlabs) and measured with an optical power and energy meter. The emission signal was focused and collected at right angle to the excitation pathway and directed to a Princeton Instruments Acton SP-2300i monochromator equipped with 600 g/mm grating blazed at 1200 nm. A longpass glass filter was placed in front of the monochromator entrance slit to cut off light at wavelengths shorter than 850 nm. The slits for detection were fully open. As a detector an EO-817L IR-sensitive liquid nitrogen cooled germanium diode detector (North Coast Scientific Corp.) has been used. The singlet oxygen luminesce at 1270 nm was measured by recording spectra from 1100 to 1400 nm. For the data analysis, the singlet oxygen luminescence peaks at different irradiation intensities were integrated. The resulting areas were plotted against the percentage of the irradiation intensity and the slope of the linear regression calculated. The absorbance of the sample was corrected with an absorbance correction factor. As reference for the measurement in an CH3CN solution phenalenone (Φphenaleone=0.95)^33 and for the measurement in a D2O solution [Ru(bipy)3]Cl2 (ΦRu(bipy)3C12=0.22)^31 was used and the singlet oxygen quantum yields were calculated using the following formula: […]
Additionally, the DFT calculations were able to characterize the lowest energy absorption band as a MLCT transition with a triplet state. With this in hand, a quantitative evaluation of singlet oxygen (^1O2) was performed to assess the potential of the PSs in PDT, by two methods: 1) direct by measurement of the luminescence of ^1O2, 2) indirect by measurement of the variation in absorbance of a reporter molecule, as described above. In the first method, the efficiency of the production of ^1O2 was assessed by measuring its phosphorescence at 1270 nm. Worthy of note, the possibility of detection in this experiment is affected by its environment as well as the used setup. With the setup used in this study, we could only detect Φ(^1O2) larger than 0.20 based on a low peak-to-noise ratio. In the second method (indirect method), ^1O2 is reacting with imidazole (in CH3CN) and histidine (in PBS buffer) to a trans-annular peroxide adduct. This can further quench the absorbance of the reporter molecule p-nitrosodimethyl aniline (RNO), which has been monitored by UV/VIS spectroscopy. In both methods, the ^1O2 production has been compared with a reference molecule, namely a solution of phenalenone in CH3CN (Φ(^1O2)phenaleone=0.95)^33 and a solution of [Ru(bipy)3]Cl2 in water Φ(^1O2)Ru(bipy)3Cl2=0.22)^31. […] In comparison, the values changed drastically in an aqueous solution. […] They have untypically low Φ(^1O2) values in CH3CN (0.22-0.35) for Ru(II) polypyridyl complexes. Subsequently, the ^1O2 production was also quite low in an aqueous environment.

[6] = RPE-1, dark, read-out: IC50 Dark
[7] = RPE-1, light 480 nm, 10 min, 3.21 J cm^−2, read-out: IC50 Light
[8] = light 480 nm, 10 min, 3.21 J cm^−2, read-out: IC50 Light
[9] = CT-26, dark, 4 h incubation, read-out: IC50 Dark
[10] = CT-26, light 480 nm, 10 min, 3.21 J cm^−2, read-out: IC50 Light
[11] = U87, light 480 nm, 10 min, 3.21 J cm^−2, read-out: IC50 Light

Compound	PI (IC50 in the dark/IC50 upon light irradiation) ([1]; 10 min)	IC50 [1, 6]	IC50 [1, 7]	PI (IC50 in the dark/IC50 upon light irradiation) ([2]; 10 min)	IC50 ([2]; dark, read-out: IC50 Dark)	IC50 [2, 8]	PI (IC50 in the dark/IC50 upon light irradiation) ([3]; 10 min)	IC50 [3, 9]	IC50 [3, 10]	PI (IC50 in the dark/IC50 upon light irradiation) ([4]; 10 min)	IC50 ([4]; U87, dark, read-out: IC50 Dark)	IC50 [4, 11]	Singlet oxygen quantum yield Φ(1O2), CH3CN Direct [5]	Singlet oxygen quantum yield Φ(1O2), D2O Direct (not determinable) [5]	Singlet oxygen quantum yield Φ(1O2), D2O Direct [5]	further results
((E,E′)-4,4′-Bis(N,N′-dimethylaminovinyl)-2,2′-bipyridine)bis(4,7-diphenyl-1,10-phenanthroline)ruthenium(II) hexafluorophosphate [Compound 7]	>11.2	> 100 µM	8.95 ± 0.5 µM	>6.5	> 100 µM	15.2 ± 1.29 µM	14.3	94.5 ± 7.38 µM	6.62 ± 0.7 µM	>12.7	> 100 µM	7.9 ± 0.54 µM	0.22	n.d. (n.d. = not determinable, Φ(^1O2) < 0.20)	–	–
(4,4′-Dimethyl-2,2′-bipyridine)bis(4,7-diphenyl-1,10-phenanthroline)ruthenium(II) hexafluorophosphate [Compound 6]	34.9	28.8 ± 0.94 µM	0.825 ± 0.03 µM	22.2	13.6 ± 1.3 µM	0.61 ± 0.06 µM	16.3	3.09 ± 0.3 µM	0.19 ± 0.04 µM	42.5	28.4 ± 1.97 µM	0.67 ± 0.13 µM	0.61	n.d. (n.d. = not determinable, Φ(^1O2) < 0.20)	not detectable	PI ([3]; CT-26, 510 nm 40 min): 20.6; PI ([3]; CT-26, 540 nm 60 min): 9.6; PI ([3]; CT-26, 595 nm 2 h): 23.47; IC50 ([3]; CT-26, dark control of the 510 nm 40 min experiment, read-out: IC50 Dark): 4.18 ± 0.56 µM; IC50 ([3]; CT-26, dark control of the 540 nm 60 min experiment, read-out: IC50 Dark): 3.27 ± 0.64 µM; IC50 ([3]; CT-26, dark control of the 595 nm 2 h experiment, 2 h at 37° C. in non-CO2 atmosphere, read-out: IC50 Dark): 1.408 ± 0.003 µM; IC50 ([3]; CT-26, light 540 nm 60 min, read-out: IC50 Light): 0.34 ± 0.005 µM; IC50 ([3]; CT-26, light 595 nm 2 h, no CO2 atmosphere during irradiation, read-out: IC50 Light): 0.06 ± 0.004 µM
Cc1ccnc(-c2cc(C)ccn2)c1.F[P-](F)(F)(F)(F)F.F[P-](F)(F)(F)(F)F.[Ru].c1cnc2c(c1)ccc1cccnc12.c1cnc2c(c1)ccc1cccnc12 [Compound 2, (4,4′-Dimethyl-2,2′-bipyridine)bis(1,10-phenanthroline)ruthenium(II)hexafluorophosphate]	–	> 100 µM	> 100 µM	–	> 100 µM	> 100 µM	>1	> 100 µM	91.2 ± 7.54 µM	>1	> 100 µM	71.4 ± 7.54 µM	0.69	–	0.31	–
(2,2′-bipyridine-4,4′-carboxamide)bis(1,10-phenanthroline)ruthenium(II) hexafluorophosphate [Compound 4]	–	> 100 µM	> 100 µM	–	> 100 µM	> 100 µM	>1	> 100 µM	72.6 ± 7.44 µM	–	> 100 µM	> 100 µM	0.62	–	0.25	–
